Among the data in ChEMBL document CHEMBL4819030, “Microbial Transformation of Broussochalcones A and B by Aspergillus niger” (J Nat Prod, 2021) are Activity and IC50 values, retold here.

In general, IC50 refers to the midpoint of a concentration-inhibition curve. The low end stands for inhibition by little substance, the high end for a need for much substance.

Common to all, as to type: functional, cell-based
One test relates to MCF7. The test can be described thus: Cytotoxicity against human MCF7 cells incubated for 24 hrs by MTT assay. A general note: Tetrazolium assays rely on reduction of a dye to a coloured formazan, in cell work by metabolically active cells.
A further test has as its system HT-29. The test can be described thus: Cytotoxicity against human HT29 cells incubated for 24 hrs by MTT assay.
Another test deals with A375P. Briefly: (§1) Cytotoxicity against human A375P cells incubated for 24 hrs by MTT assay.
A further test deals with A549. Briefly: Cytotoxicity against human A549 cells incubated for 48 hrs by MTT assay.
The subject of a further test is HepG2. The test can be described thus: Cytotoxicity against human HepG2 cells incubated for 48 hrs by MTT assay.
Test [1] in a line: as §1.

Activity calls are given as the source filed them. No cut-off for these calls is given here.

As for `CC1(C)O[C@H]1Cc1cc(C(=O)/C=C/c2ccc(O)c(O)c2)c(O)cc1O`, the result in the test on MCF7, in the test on HT-29, in the test on A375P, with A549 and in the test with HepG2 was inactive.
Turning to `CC(C)(O)[C@@H](O)Cc1cc(C(=O)CCc2ccc(O)c(O)c2)c(O)cc1O`, the result with MCF7, in the test on HT-29, in the test on A375P, with A549 and with HepG2 was inactive.
Consider `CC(C)(O)[C@H](O)Cc1cc(C(=O)/C=C/c2ccc(O)c(O)c2)c(O)cc1O`, for which the result with MCF7, in the test with HT-29, in the test on A375P, in the test on A549 and in the test with HepG2 was inactive.
Take `CC(C)(O)[C@@H](O)Cc1cc(C(=O)CCc2ccc(O)cc2)c(O)cc1O`: the result in the test with MCF7, with HT-29, in the test on A375P, in the test with A549 and in the test with HepG2 was inactive.
In the case of `CC1(C)O[C@H]1Cc1cc(C(=O)/C=C/c2ccc(O)cc2)c(O)cc1O`, the outcome in the test on MCF7, in the test on HT-29, with A375P, with A549 and in the test with HepG2 was inactive.
`CC(C)(O)[C@H]1Cc2cc(C(=O)CCc3ccc(O)cc3)c(O)cc2O1`: the result with MCF7, with HT-29, in the test on A375P, in the test on A549 and in the test on HepG2 was inactive.
`CC1(C)O[C@@H]1Cc1cc(C(=O)CCc2ccc(O)c(O)c2)c(O)cc1O`: the outcome with MCF7, in the test with HT-29, in the test on A375P, with A549 and with HepG2 was inactive.
On to `CC(C)(O)[C@H](O)Cc1cc(C(=O)/C=C/c2ccc(O)cc2)c(O)cc1O`, for which the outcome in the test with MCF7, with HT-29, in the test with A375P, in the test with A549 and with HepG2 was inactive.
Regarding `CC1(C)O[C@@H]1Cc1cc(C(=O)CCc2ccc(O)cc2)c(O)cc1O`, the outcome in the test with MCF7, with HT-29, with A375P, in the test on A549 and in the test with HepG2 was inactive.
Regarding `CC(C)=CCc1cc(C(=O)CCc2ccc(O)c(O)c2)c(O)cc1O`, the IC50 turned out to be 3.8 µM with MCF7 (MCF7, 24 h); 3.8 µM in the test with HT-29 (HT-29, 24 h); 3.8 µM in test [1]; 3.8 µM with A549 (A549, 48 h). Also, the outcome in the test with HepG2 was inactive.
